In PMC11898654, “The Na^+-K^+-ATPase alpha subunit is an entry receptor for white spot syndrome virus” (mBio, 2025):
Where a name gives a salt, the structure may show the parent alone.

What was measured:
WSSV [1] = assay: Endocytic inhibitors injected into shrimp, WSSV entry and replication in hemocytes; type: in vivo, White spot syndrome virus; conditions: shrimp injected with inhibitor before WSSV; for effect on WSSV entry and replication in shrimp hemocytes: qPCR and flow cytometry, entry 4 h, replication 24 h post-infection
Method: Given that viruses enter host cells by exploiting various endocytic pathways, such as clathrin-mediated endocytosis, caveolin-mediated endocytosis, and macropinocytosis ([31]), we went on to examine which of these endocytic pathways is used by WSSV to enter hemocytes. […].
Fig. S5 WSSV entry into shrimp hemocytes through multiple endocytic pathways. (A-F) Identification of endocytic pathways triggered by WSSV. Shrimps were injected with either WSSV or PBS (negative control), and hemocytes were harvested 4 hours post-infection. Hemocytes were incubated with endocytic markers TFN-AF555, CTB-AF555, and DTN-AF568, and uptake rates were analyzed by flow cytometry. Panels (A-C) display representative flow cytometry images for the uptake of TFN-AF555, CTB-AF555, and DTN-AF568, respectively. Quantified uptake rates from three independent experiments are shown in panels (D-F). (G-J) Impact of endocytic inhibitors on WSSV entry. Shrimps were injected with the inhibitors CPZ, GEN, or AMR, and hemocytes were collected 2 hours later for cytotoxicity analysis using the CCK8 kit (G). FITC-labeled or unlabeled WSSV particles were subsequently injected, and hemocytes were harvested 4 hours post-infection for flow cytometry (H) and qPCR (J) to assess WSSV entry. Data from three independent flow cytometry assays are presented in panel (I). (K) Effect of endocytic inhibitors on WSSV replication. Shrimps were injected with WSSV particles following inhibitor treatment, and hemocytes were collected 24 hours post-infection for WSSV copy number quantification via qPCR. Statistical significance was determined using a two-tailed Student’s t-test. * P < 0.05, ** P < 0.01, and *** P < 0.001.

WSSV VP28 protein = WSSV VP28 protein (White spot syndrome virus, UniProt Q9ICB7); type: binding; conditions: SPR, different concentrations of the synthetic peptides
Method: SPR experiments were conducted using a Biacore T200 system (GE Healthcare, USA). […] Regeneration of the sensor chip was performed by injecting glycine (pH 3.0) for 30 s at a flow rate of 30 µL/min. The Biacore Insight Evaluation Software application was utilized to analyze the association and dissociation rates using a steady state affinity analysis, and the equilibrium dissociation constant (KD) was determined as the ratio of the dissociation rate to the association rate.

WSSV [2] = assay: Endocytic inhibitor treatment, WSSV entry in PvATP1A-overexpressing PAC2 cells; type: cell-based, White spot syndrome virus; conditions: 5 µM inhibitor pre-treatment 30 min, WSSV MOI = 0.1 for 1 h, qPCR, compared with cells treated with CPZ
Method: Endocytic inhibitors, chlorpromazine hydrochloride (CPZ, Cat. No. HY-B0407A), genistein (GEN, Cat. No. HY-14596), and amiloride hydrochloride (AMR, Cat. No. HY-B0285A), were purchased from MedChemexpress. Zebrafish PAC2 fibroblast cells were transfected with either the PvATP1A expression plasmid (pEGFP-N1-PvATP1A) or the control plasmid pEGFP-N1. Forty-eight hours post-transfection, cells expressing pEGFP-PvATP1A were pre-treated with 5 µM of each endocytic inhibitor (CPZ, GEN, and AMR) or DMSO (as a control) for 30 min. Following pre-treatment, cells were infected with WSSV (MOI = 0.1) for 1 h. The cells were then washed thrice with PBS, and DNA was extracted for quantification of WSSV copy numbers using qPCR. Cytotoxicity of the endocytic inhibitors on PAC2 cells was assessed using the CCK8 kit (Beyotime, China, Cat. No. C0037), following the manufacturer’s instructions.

| Compound | effect on WSSV entry and replication in shrimp hemocytes (WSSV [1]) | change in response units (RU) of the VP28-coated chip (WSSV VP28 protein) | ranking among the endocytic inhibitors for virus entry (WSSV [1]) | WSSV entry, viral copy numbers in PvATP1A-overexpressing cells (WSSV [2]) |
| --- | --- | --- | --- | --- |
| CN(C)CCCN1c2ccccc2Sc2ccc(Cl)cc21 [CPZ, chlorpromazine hydrochloride] | inhibited WSSV entry and replication |  |  |  |
| MVSKGEELFT [pEGFP] |  | no changes in the response units |  |  |
| O=c1c(-c2ccc(O)cc2)coc2cc(O)cc(O)c12 [GEN, genistein] | inhibited WSSV entry and replication |  | most potent inhibitors of virus entry | significantly decreased viral copy numbers |
| N=C(N)NC(=O)c1nc(Cl)c(N)nc1N [AMR, amiloride hydrochloride] | inhibited WSSV entry and replication |  |  | significantly decreased viral copy numbers |
